According to patent US20060263453A1, “Methods and compositions for modulating glutamate dehydrogenase” (priority 2004, published 2006):
Where two headings read alike, the source gives them in different places.

Columns and labels:
[1] = target: T1, Bovine GDH (bGDH) (Bos taurus, UniProt P00366); test: reductive amination reaction catalyzed by bovine GDH (NADH absorbance at 340 nm); format: biochemical
T1 construct: purchased Sigma Aldrich Chemical Company (St. Louis, Mo.)
Method: In this Example, the effects of epigallocatechin gallate (EGCG), epigallocatechin (EGC), epicatechin gallate (ECG), and epicatechin (EC) from Camellia sinensis on GDH activity were tested. Bovine GDH (bGDH) was used in this Example, which was obtained as an aqueous (NH4)2SO4 suspension from Sigma Aldrich Chemical Company (St. Louis, Mo.).
(§1) First, aliquots of GDH were extensively dialyzed against 0.1M sodium phosphate buffer, pH 7.0, which contained 1 mM ethylenediaminetetraacetic acid (EDTA). The enzyme concentrations were adjusted to 1 mg/ml and the amount of enzyme added to the reaction mixture, for kinetic analysis, was adjusted to yield optimal steady state velocity measurements. All solutions were made immediately prior to use. Enzyme assays were performed by monitoring reduced coenzyme absorbance at 340 nm using a Shimadzu UV-1601 spectrophotometer. The reductive amination reactions were performed in 3 mL volumes at pH 7.0 in the presence of 0.1 mM nicotinamide adenine dinucleotide (NADH), 50 mM NH4Cl, and 5 mM 2-oxoglutarate. The rate of NADH oxidation was calculated using an extinction coefficient of 6.22 mM^−1 cm^−1.

[2] = target: T2, GDH (Bos taurus, UniProt P00366); test: abrogation of EGCG inhibition of GDH by leucine, BCH and ADP; format: biochemical, bovine
T2 construct: purchased Sigma Aldrich Chemical Company (St. Louis, Mo.)
T2 sequence (P00366 58-558): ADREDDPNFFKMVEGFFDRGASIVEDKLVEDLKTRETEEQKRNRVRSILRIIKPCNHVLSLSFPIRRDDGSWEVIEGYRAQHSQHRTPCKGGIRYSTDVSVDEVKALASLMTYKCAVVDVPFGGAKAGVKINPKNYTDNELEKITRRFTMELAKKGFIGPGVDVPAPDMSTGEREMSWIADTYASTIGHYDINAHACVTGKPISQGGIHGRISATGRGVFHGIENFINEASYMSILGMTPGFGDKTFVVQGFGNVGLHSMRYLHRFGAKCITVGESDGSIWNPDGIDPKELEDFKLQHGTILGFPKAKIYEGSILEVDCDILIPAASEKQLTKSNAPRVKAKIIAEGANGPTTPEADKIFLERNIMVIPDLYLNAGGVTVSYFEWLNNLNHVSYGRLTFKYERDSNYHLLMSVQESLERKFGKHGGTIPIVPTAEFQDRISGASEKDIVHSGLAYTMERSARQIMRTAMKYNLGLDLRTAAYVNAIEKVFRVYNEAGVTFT
Method: as §1
The ability of the activators BCH, leucine, and ADP to reverse EGCG regulation on GDH was next examined. More particularly, kinetic analysis of GDH activity was carried out as described in Example 1, wherein each reaction contained either (a) 0 μM EGCG plus leucine; (b) 1 μM EGCG plus leucine; (c) 0 μM EGCG plus BCH; (d) 1 μM EGCG plus BCH; (e) 0 μM EGCG plus ADP; or (f) 1 μM EGCG plus ADP.

[3] = tested on: HI/HA mutant forms of GDH (R265K, R269C, E296A, S448P, H454Y); test: kinetic analysis of HI/HA mutant forms of GDH; format: biochemical, human; conditions: FIG. 4
Method: as §1
(§2) To this end, EGCG was tested against five different HI/HA mutant forms of GDH, namely, R265K, R269C, E296A, S448P, and H454Y. In addition, EGCG was tested against human wild type GDH (“WT”), GDH from Tetrahymena thermophilia (“tGDH”) that, like the HI/HA mutant GDH enzymes, is not regulated by GTP, and a human GDH that was missing a certain 48 residue ‘antenna-like’ feature protruding from the top of each of its six subunits that is necessary for ADP, GTP, and Palmitoyl CoA regulation. […]

[4] = tested on: 'antenna-less' form of human GDH; test: kinetic analysis of 'antenna-less' human GDH; format: biochemical; conditions: FIG. 4
Method: as §1, §2

[5] = tested on: rat islets; test: BCH-stimulated insulin secretion and oxygen consumption in perifused islets; format: cell-based, Wistar rat
Method: In this Example, the effects of EGCG and EGC on LSIS were measured, while simultaneously monitoring respiration rates. More particularly, the effects of EGCG (20 μM) and EGC (20 μM) on BCH-stimulated insulin secretion were measured. First, 1000 adult male Wistar rat islets were isolated as described above and were cultured on a glass perfusion chamber in 10 mM glucose for 3 days. Next, the islets were perifused in an oxygen consumption measurement apparatus containing BCH, along with 0 μM EGCG and 0 μM EGC, 20 μM EGCG, or 20 μM EGC. The perifusion apparatus used in these Examples consisted of a peristaltic pump, a water bath (37° C.), a gas exchanger (artificial lung: media flowed through the thin-walled silastic tubing loosely coiled in a glass jar that contained 20% O2 and 5% CO2 balanced with N2), and fraction collector. All transfer lines were insulated. After the system was provided with 20 μM EGCG or 20 μM EGC, oxygen partial pressure was recorded every 10 seconds by phosphorescence lifetimes of an oxygen-sensitive porphyrin (palladium-mesotetra; 4-carboxyphenyl porphyrin dendrimer). The dye molecules were excited with pulses at 524 nm from a UV lead and emission was measured at 690 nm. The inflow oxygen tension was measured in the absence of islets in the chamber before and after each experiment. The perifusate was a Krebs buffer (pH 7.4) containing 2.2 mM Ca^2+, 1% bovine serum albumin equilibrated with 20% O2 and 5% CO2 balanced with N2. The flow rate was […] and samples were collected every 2 minutes for insulin measurements by radioimmunoassay. The results are summarized in FIG. 6, and are presented as means±S.E. for 1000 islets from 3 separate experiments for EGCG (and from 1 experiment for EGC). Due to the high density of data, S.E. is only shown in every 20 samples.

[6] = tested on: rat islets; test: glucose stimulated insulin secretion in 120 minute run-down islets; format: cell-based
Method: Under brief “run-down” conditions used for the above GSIS analysis, where glucose was removed from the cells for only […], the levels of high-energy metabolites (i.e., GTP and ATP) have not been depleted and these effectively shut down GDH activity. This, in turn, eliminated any effect GDH might have on insulin secretion. Therefore, the effects of EGCG were also tested on […] that had been “run-down” for a longer period of time (120 minutes) prior to glucose stimulation (FIG. 11). Specifically, isolated rat islets were cultured with 10 mM glucose for 3 days and then perifused in the absence of glucose and in the presence of 0 or 20 μM EGCG (or 20 μM EGC) for “run-down” periods of 120 minutes prior to stimulation with a glucose ramp (0 to 25 mM, 0.5 mM/minute). Finally, islets were exposed to 30 mM KCl. The insert highlighted the insulin secretion from time=120 minutes to 140 minutes.

[7] = cited from earlier work
[8] = ethanol, DMSO, dimethyl formamide; stored at −20° C.; cited from earlier work
[9] = ethanol, DMSO, dimethyl formamide

T1 sequence (P00366 58-558): as above

**Q.** With `O=C(O[C@@H]1Cc2c(O)cc(O)cc2O[C@@H]1c1cc(O)c(O)c(O)c1)c1cc(O)c(O)c(O)c1` [EGCG, (2R,3R)-2-(3,4,5-Trihydroxyphenyl)-3,4-dihydro-1 (2H)-benzopyran-3,5,7-triol 3-(3,4,5-trihydroxybenzoate)] as the molecule, how does the “potent inhibitor of GDH activity” value ([1]; FIG. 1A) read?
**A.** potent inhibitors

**Q.** And the reversibility of inhibition ([1]; dialysis of an EGCG/GDH mixture, data not shown)?
**A.** reversible

**Q.** And the inhibition at 1 µM ([2]; 1 μM EGCG plus leucine, BCH or ADP, read-out: EGCG inhibition at the highest concentration of activators)?
**A.** ~30%

**Q.** And the inhibition at 1 µM ([2]; 1 μM EGCG, without activator, read-out: inhibition of the reaction)?
**A.** > 80%

**Q.** And the “inhibition of the activity of HI/HA GDH enzymes” value [3]?
**A.** substantially the same efficacy as with wild type human GDH

**Q.** What about the “inhibition of 'antenna-less' human GDH” value [4] of the same molecule?
**A.** did not inhibit

**Q.** What about the “effect on LSIS (BCH-induced insulin secretion)” value ([5]; 20 μM, FIG. 6A) of the same molecule?
**A.** strongly inhibited

**Q.** What about the “effect on BCH-induced increase in respiration rates” value ([5]; 20 μM, FIG. 6B) of the same molecule?
**A.** inhibited

**Q.** And the “effect on oxygen consumption in the absence of BCH” value ([5]; data not shown)?
**A.** did not have any significant effect

**Q.** What about the “potentiation of GSIS” value ([6]; 20 μM, 120 minute run-down, FIG. 11) of the same molecule?
**A.** potentiates

**Q.** And the “effect on KCl-stimulated release of insulin” value ([6]; 30 mM KCl)?
**A.** neither EGCG or EGC affected

**Q.** What about the “solubility in organic solvents” value [7, 9] of the same molecule?
**A.** at least 20 mg/mL

**Q.** What about the “soluble in organic solvents” value [7, 9] of the same molecule?
**A.** soluble

**Q.** What about the “solubility in phosphate buffered saline (PBS)” value ([7]; pH 7.2) of the same molecule?
**A.** at least 25 mg/mL

**Q.** And the “stability in organic solvents” value [8]?
**A.** at least six months
